# Measurements as given in patent US20240360153A1 (Regeneron Pharmaceuticals, Inc., priority 2023, published 2024).
# Columns and labels:
# [1] = In vitro microsomal metabolic stability, CD-1 mouse liver microsomes; assay type: in vitro ADME; conditions: for CLint scaled at 1 µM / microsomal CLint at 1 µM: CD-1, mouse, mouse liver microsomes, pH 7.2; for half-life at 1 µM: CD-1, pH 7.2, 0.5 mg/ml protein, NADPH; for half-life at 1 µM / Remaining (T = 60 min) / Remaining (T = NCF60 min): Mouse liver microsomes; for Remaining (T = 60 min): with NADPH; for Remaining (T = NCF60 min): without NADPH regenerating system; for Remaining (T = 60 min) / Remaining (T = NCF60 min): 60 min
# Description: (§1) Buffers: PBK Buffer: 50 mM potassium phosphate buffer (PPB), pH 7.2, with 3.3 mM Magnesium Chloride.
# (§2) TA Intermediate solution: Compound or control (3 μL) diluted from stock solution (10 mM) with 297 μL 90.0% methanol/water. (Conc: 100 μM; 1.0% DMSO, 89.1% MeOH).
# (§3) Control cocktail intermediate solution: Each control (3 μL) was diluted with 291 μL 90.0% methanol/water.
# (§4) Diluted TA intermediate stock solution and PC control stock were made by transferring 80 μL of 100 μM TA stock solution into new tubes and then adding 720 μL of 1.0% DMSO in 50 mM potassium phosphate buffer (conc. 10 μM; 1.0% DMSO, 8.91% MeOH).
# (§5) Preparation of Liver microsomes working solution (1.25×)(final Conc.: 0.5 mg/mL).
# (§6) Acetonitrile:methanol (9:1, v/v)(including 200 ng/mL tolbutamide and 200 ng/ml labetalol hydrochloride as internal standards).
# (§7) Working solution: Intermediate solution (80 μL) was diluted with 720 μL 1.0% DMSO in 50 mM potassium phosphate buffer (Conc.: 10 μM; 1.0% DMSO, 8.91% MeOH)
# (§8) Procedure: Stock solution was added to each of the time point plates. Microsomes solution (360 μL/well), TA/PC (45 μL/well), and NADPH (45 μL/well) min. (Conc: 1.0 μM, 0.10% DMSO, 0.891% MeOH) were added to the incubation plates. To the T60 and NCF60 plate, TA (15 ul/well) and Microsomes (120 ul) were added. To the blank plate, microsome (50 ul/well) with stop solution (150 ul/well) were added. At the end of each time point, 50 ul/well was aliquoted from the incubation plate. The sampling plates were shaken for approximately 10 min. on a shaker and the samples were centrifuged at 4000 rpm for 15 min. Supernatant (120 μL) was transferred for LC/MS/MS.Compounds from Table 3 were incubated at 37° C. with liver microsomes (pooled from multiple donors) at 1 μM in the presence of a NADPH regenerating system at 0.5 mg/ml microsomal protein. Positive controls included testosterone (3A4 substrate), propafenone (2D6) and diclofenac (2C9), which were incubated with microsomes in the presence of an NADPH regenerating system. At time points (0, 5, 10, 20, 30 and 60 minutes), samples were removed and immediately mixed with cold acetonitrile containing the internal standard (IS). Test compounds incubated with microsomes without the NADPH regenerating system for 60 min are also included. A single point for each test condition (n=1) was obtained, and samples were analyzed by LC/MS/MS. Disappearance of the test compound was assessed based on peak area ratios of analyte/IS (no standard curve).
# [2] = test system: S6K1 (Thr389) phosphorylation (mTORC1 activity) in wild-type (WT) 293T cells; assay: Inhibition of S6K1 (Thr389) phosphorylation in wild-type 293T cells (ELISA); assay type: cell-based, human; conditions: for IC50: Homo sapiens, HEK-293T, 2 h, wild-type 293T cells, 2 hours treatment; for fold lower potency compared with RAD001 (by IC50) / extent of inhibition of S6K1 (Thr389) phosphorylation: wild-type cells; for extent of inhibition of S6K1 (Thr389) phosphorylation: with increasing concentrations
# Description: (§9) Treatment of wild-type (WT) and FKBP12 knock-out 293T cells with RAD001 (everolimus) and test compounds. WT and FKBP12 knock-out 293T cells were cultured in Dulbecco's modified Eagle's medium (Gibco #11971-025) supplemented with 10% fetal bovine serum (Gibco #26140-079). Cells were plated at a density of 15,000 cells per well in poly-D-Lysine coated 96-well plates (Corning, #354461) and were incubated at 37° C., 5% CO2 for 24 hours until they reached ˜80% confluence. Cells were treated with RAD001 or test compounds reconstituted in dimethyl sulfoxide (DMSO) using a 8-11-point dose range, from 0.001 pM to 10 μM. All treatments were performed in duplicates for 2 hours at 37° C. Cell culture media supplemented with blank dimethyl sulfoxide (DMSO) was used as a negative control for all compounds. Phosphorylated amounts of S6K1 (Thr389) were measured using an ELISA kit (Invitrogen 85-86052-11), following the manufacture's protocol.
# (§10) S6K1 is an immediate downstream target of mTORC1 and therefore phosphorylation of S6K1 at Thr389 residue is used to measure mTORC1 activity (PMID: 16968213). Amounts of phosphorylated S6K1 (Thr389) were measured in WT and FKBP12 knock-out 293T cells treated with either RAD001 or Compound 44 (FIGS. 1A and 1B), and Compound 45 (FIGS. 1C and 1D).
# [3] = test system: S6K1 (Thr389) phosphorylation (mTORC1 activity) in FKBP12 knock-out 293T cells; assay: Inhibition of S6K1 (Thr389) phosphorylation in FKBP12 knock-out 293T cells (ELISA); assay type: cell-based, human; conditions: for selectivity for FKBP12 compared with RAD001 (in words): wild-type versus FKBP12 knock-out cells
# Excerpt: Example Generation of FKBP 12 knock-out cells. A CRISPR/Cas9 system was used to deliver ribonucleoprotein complexes containing guide RNA sequences that target FKBP12 (ac[…], location 1369062; ccactactcac[…], location 1369181) in HEK293T cells using Lipofectamine CRISPRMAX transfection reagent (Invitrogen CMAX00008). Cell clones were screened by immunoblotting with anti-FKBP-specific antibody (Novus, NB300-508). Single cells that were deficient for FKBP12 protein were selected and cloned.
# as §9, §10
# [4] = In vitro microsomal metabolic stability, human liver microsomes; assay type: in vitro ADME; conditions: for Remaining (T = 60 min) / Remaining (T = NCF60 min) / half-life at 1 µM: Human liver microsomes; for Remaining (T = 60 min): with NADPH; for Remaining (T = NCF60 min): without NADPH regenerating system; for Remaining (T = 60 min) / Remaining (T = NCF60 min): 60 min; for CLint scaled at 1 µM / microsomal CLint at 1 µM: human, human liver microsomes; for CLint scaled at 1 µM / microsomal CLint at 1 µM / half-life at 1 µM: pH 7.2; for half-life at 1 µM: 0.5 mg/ml protein, NADPH
# Description: as §1, §2, §3, §4, §5, §6, §7, §8
Compound,CLint scaled at 1 µM [1] [mL/min/kg],microsomal CLint at 1 µM [1] [µL/min/mg],half-life at 1 µM [1] [min],Remaining (T = 60 min) [1] [%],Remaining (T = NCF60 min) [1] [%],IC50 [2] [nM],fold lower potency compared with RAD001 (by IC50) [2] [fold],extent of inhibition of S6K1 (Thr389) phosphorylation [2],inhibition of S6K1 (Thr389) phosphorylation in the absence of FKBP12 (in words) ([3]; FKBP12 knock-out cells),selectivity for FKBP12 compared with RAD001 (in words) [3],Remaining (T = 60 min) [4] [%],Remaining (T = NCF60 min) [4] [%],CLint scaled at 1 µM [4] [mL/min/kg],microsomal CLint at 1 µM [4] [µL/min/mg],half-life at 1 µM [4] [min],"fold less potent compared with RAD001 ([3]; FKBP12 knock-out cells, at similar level of inhibition) [fold]","inhibition at 10 µM ([3]; Homo sapiens, HEK-293T, FKBP12 knock-out cells, 10 μM (highest tested concentration)) [%]"
"CO[C@@H]1C[C@H](C[C@@H](C)[C@@H]2CC[C@H](C)/C=C(\C)[C@@H](O)[C@@H](OC)C(=O)[C@H](C)C[C@H](C)/C=C/C=C/C=C(\C)C(Nc3cccc(OC(F)(F)F)c3)C[C@@H]3CC[C@@H](C)[C@@](O)(O3)C(=O)C(=O)N3CCCCC3C(=O)O2)CC[C@H]1O (stereo partly drawn) [Compound 58, (3S,6S,7E,9R,10R,12R,14S,15E,17E,19E,23S,26R,27R,34aS)-9,27-dihydroxy-3-((R)-1-((1S,3R,4R)-4-hydroxy-3-methoxycyclohexyl)propan-2-yl)-10-methoxy-6,8,12,14,20,26-hexamethyl-21-((3-(trifluoromethoxy)phenyl)amino)-5,6,9,10,12,13,14,21,22,23,24,25,26,27,32,33,34,34a-octadecahydro-3H-23,27-epoxypyrido[2,1-c][1]oxa[4]azacyclohentriacontine-1,11,28,29(4H,31H)-tetraone]",25.3,6.4,217,83,96,2.94,35,near complete inhibition,inhibited the mTORC1 signaling in a dose dependent manner,relatively not FKBP12 selective,55,93,18,20,69.5,,
"CO[C@@H]1C[C@H](C[C@@H](C)[C@@H]2CC[C@H](C)/C=C(\C)[C@@H](O)[C@@H](OC)C(=O)[C@H](C)C[C@H](C)/C=C/C=C/C=C(\C)C(Nc3ccc(Cl)cc3)C[C@@H]3CC[C@@H](C)[C@@](O)(O3)C(=O)C(=O)N3CCCCC3C(=O)O2)CC[C@H]1O (stereo partly drawn) [Compound 48, (3S,6S,7E,9R,10R,12R,14S,15E,17E,19E,23S,26R,27R,34aS)-21-((4-chlorophenyl)amino)-9,27-dihydroxy-3-((R)-1-((1S,3R,4R)-4-hydroxy-3-methoxycyclohexyl)propan-2-yl)-10-methoxy-6,8,12,14,20,26-hexamethyl-5,6,9,10,12,13,14,21,22,23,24,25,26,27,32,33,34,34a-octadecahydro-3H-23,27-epoxypyrido[2,1-c][1]oxa[4]azacyclohentriacontine-1,11,28,29(4H,31H)-tetraone]",,< 9.6,> 145,101,150,9.8,30,near complete inhibition,did not inhibit S6K1 (Thr389)phosphorylation at any tested concentrations,relatively more selective to FKBP12 compared with RAD001,32,107,37.8,42.1,33,,
"COc1cccc(NC2C[C@@H]3CC[C@@H](C)[C@@](O)(O3)C(=O)C(=O)N3CCCCC3C(=O)O[C@H]([C@H](C)C[C@@H]3CC[C@@H](O)[C@H](OC)C3)CC[C@H](C)/C=C(\C)[C@@H](O)[C@@H](OC)C(=O)[C@H](C)C[C@H](C)/C=C/C=C/C=C/2C)c1 (stereo partly drawn) [Compound 44, (3S,6S,7E,9R,10R,12R,14S,15E,17E,19E,23S,26R,27R,34aS)-9,27-dihydroxy-3-((R)-1-((1S,3R,4R)-4-hydroxy-3-methoxycyclohexyl)propan-2-yl)-10-methoxy-21-((3-methoxyphenyl)amino)-6,8,12,14,20,26-hexamethyl-5,6,9,10,12,13,14,21,22,23,24,25,26,27,32,33,34,34a-octadecahydro-3H-23,27-epoxypyrido[2,1-c][1]oxa[4]azacyclohentriacontine-1,11,28,29(4H,31H)-tetraone]",162,41,33.8,31,96,11,~17,completely inhibit,did not inhibit S6K1 phosphorylation at any tested concentration lower than 10 μM,relatively more selective for FKBP12 compared to RAD001,7.50,99,71.7,79.6,17.4,~100,~30
"CO[C@@H]1C[C@H](C[C@@H](C)[C@@H]2CC[C@H](C)/C=C(\C)[C@@H](O)[C@@H](OC)C(=O)[C@H](C)C[C@H](C)/C=C/C=C/C=C(\C)C(Nc3ccc(C)cc3)C[C@@H]3CC[C@@H](C)[C@@](O)(O3)C(=O)C(=O)N3CCCCC3C(=O)O2)CC[C@H]1O (stereo partly drawn) [Compound 49, (3S,6S,7E,9R,10R,12R,14S,15E,17E,19E,23S,26R,27R,34aS)-9,27-dihydroxy-3-((R)-1-((1S,3R,4R)-4-hydroxy-3-methoxycyclohexyl)propan-2-yl)-10-methoxy-6,8,12,14,20,26-hexamethyl-21-(p-tolylamino)-5,6,9,10,12,13,14,21,22,23,24,25,26,27,32,33,34,34a-octadecahydro-3H-23,27-epoxypyrido[2,1-c][1]oxa[4]azacyclohentriacontine-1,11,28,29(4H,31H)-tetraone]",42.3,10.7,130,67,139,9.5,29,near complete inhibition,did not inhibit S6K1 (Thr389)phosphorylation at any tested concentrations,relatively more selective to FKBP12 compared with RAD001,15,102,59.6,66.2,20.9,,
